Assay results: US4927843A (priority 1986, dated 1990)
“Also recorded” adds a separate entry of the source.

Key:
[1] = toxicity to animals: Lethal Dose-50 given ip to ICR mice; details: mouse, in vivo, ICR mice 20 g, one injection, average of three separate trials, Table 3
Protocol: (§1) The above mentioned thiosemicarbazone compounds were finally powdered and suspended in dimethylsulfoxid (DMSO)-(Merck) to get stock solutions of 10 mg/ml. Stock solutions were diluted to a final volume of 0.25 ml DMSO to obtain the following concentrations: 2,5 mg, 2 mg; […], 1 mg, in 0.25 ml final volume.
(§2) Each drug concentration of the 4 thiosemicarbazone derivatives was injected in a sterile manner intraperitonally (iP) to a group of 10 ICR mice, each weighing 20 g. After one injection the mice were followed for the highest non-lethal dose, and for the lethal dose. The results are an average of three separate trials.

[2] = toxicity to animals: highest non-lethal dose given ip to ICR mice; details: mouse, in vivo
Protocol: as §1, §2

[3] = tested on: Abelson-Moloney murine leukemia virus (Ab-MoMuLV) induced B-lymphoma; experiment: antiviral effect in mice against B-lymphoma induced by Ab-MoMuLV; type: in vivo; details: daily dose of 2 μg/4 g weight for 10 consecutive days, immediately after infection, versus untreated mice
Protocol: One of the three compounds, namely M-IBDET was examined as to its efficacy against the Abelson-Moloney murine leukemia virus (Ab-MoMuLV). Injection of susceptible mice with B-cell lymphocytes infected with Ab-MoMuLV usually results in induction of B-type lymphoma within 3 weeks. Treatment of mice immediately after infection with MoMuLV infected cells with M-IBDET at a daily dose of 2 μg/4 g weight for 10 consecutive days caused a delay of 3 weeks in the appearance of the lymphoma in the drug-treated mice as compared with untreated mice.

Moloney leukemia virus = details: literature refs (1-3); cited from earlier work
[4] = tested on: viruses belonging to the Retroviridae family; experiment: inhibition of virus production of Retroviridae in infected cells (summary); type: cell-based; details: tested by applicant
Protocol: The thiosemicarbazone compounds described in this invention, were found by us to be specific inhibitors of viruses belonging to the Retroviridae family. Results obtained in our laboratory indicate that amounts ranging from 17 μM to 34 μM of the thiosemicarbazones suppressed specifically the production of viruses belonging to the Retroviridae family. The extent of inhibition of virus production in the infected cells was 75-85%. This inhibition was confirmed by various parameters of virus assay such as: reverse transcriptase activity, virus infectivity and contents of viral structural proteins.

[5] = tested on: pox-virus family (smallpox); details: oral, 40 mg/kg for 4 consecutive days; cited from earlier work
[6] = tested on: human immunodeficiency virus--HIV; experiment: inhibition of HIV production in chronically infected H9 and HuT-78 cell lines; type: cell-based, human cell lines; details: evaluated in a similar manner (2 hrs, then 1:10 dilution, 24 hrs)
Protocol: The thiosemicarbazone compounds were examined for their inhibitory effect on the human immunodeficiency virus--HIV in the following chronically infected cell lines:
H9 cell line--A human established T-cell line chronically infected with HIV;
HuT-78 cell line--A human cell line chronically infected with ARV2 (HIV).
concentrations of 5×10^6 cells per ml were incubated with 17-34 μM of the different thiosemicarbazones. Virus production was assayed in the drug-treated and untreated cells after 7 hrs of exposure. An 85% inhibition of virus production was found in the drug-treated cultures as compared to control untreated cultures. Virus production was determined by assaying various virus parameters such as reverse transcriptase activity, plaque forming units (PFU) and viral structtural protein content.
The compounds were also tested by employing a different way of treatment of the HIV infected cultures: 5×10^6 infected cells were incubated with 17-34 μM of the drug for 2 hrs. Subsequently a dilution of 1:10 of the medium was performed to final concentration of 1.7-3.4 μM of the drug. The cultures were further incubated for 24 hrs in diluted medium and virus production was assayed. The extent of inhibition of HIV production achieved by the described treatment was 75-85%. M-IBT was evaluated in a similar manner.

[7] = tested on: viruses listed in Table I; type: cell-based, Mouse, Avian, Human cells; details: 34 μM, 18 hrs (such conditions of treatment)
EIAV = experiment: inhibition of EIAV production in chronically infected fibroblast cells; type: cell-based; details: 2 hrs then 1:10 dilution, further 24 hours
Protocol: Fibroblast cells of […] chronically infected with EIAV were incubated for 2 hrs with concentrations ranging from 17 μM to 34 μM of the described thiosemicarbazone compounds. Subsequently the medium was diluted 1:10 to obtain a final concentration of ranging from 1.7 to 3.4 μM. The cultures were further incubated for 24 hours and virus production was assayed in drug-treated and untreated cells. The extent of inhibition of virus production in the treated cultures was 70-80%. M-IBT was tested and found to be ineffective.

[8] = ICR mice 20 g, one injection, average of three separate trials, Table 2

SMILES | LD50 [1] [mg/kg] | MTD [2, 8] [mg/kg] | delay in the appearance of the lymphoma [3] [weeks] | inhibition of production of Moloney leukemia virus (Moloney leukemia virus) | MTD ([2]; ICR mice 20 g-weight) [mg/kg] | effectiveness against viruses of the Retroviridae [4] | clinical effectiveness against pox virus / smallpox [5] | inhibition of HIV production [6] | effectiveness on virus infectivity [7] | effectiveness against EIAV (EIAV)
C=CCN1C(=O)C(=NNC(=S)N(CC)CC)c2ccccc21 [A-IBDET, 1-allylisatin-β-4':4'-diethylthiosemicarbazone] | 175 | 100 |  |  |  |  |  |  |  | 
C=CCN1C(=O)C(=NNC(=S)N(C)C)c2ccccc21 [A-IBDMT, 1-allylisatin-β-4':4'-dimethylthiosemicarbazone] | 175 | 100 |  |  |  |  |  |  |  | 
CCN(CC)C(=S)NN=C1C(=O)N(C)c2ccccc21 [M-IBDET, 1-methylisatin-β-4':4'-diethylthiosemicarbazone] | 125 | 50 | 3 | inhibits the production of Moloney leukemia virus |  |  |  |  |  | 
CN1C(=O)C(=NNC(N)=S)c2ccccc21 [M-IBT, N-methylisatine 3-thiosemicarbazone] | 125 |  |  |  | 50 | ineffective | effective in the treatment of humans against smallpox; also recorded: effective against subjects known to have contact with smallpox; also recorded: effective results; also recorded: clinically effective | No inhibition could be detected | not effective | ineffective
